In the supplement of paper PMC4862054:

Columns and labels:
Settings in all cases: incubation time: 72 h
[1] = tested on: MCF-10A; assay: normalised response (% of control), CellTiter-Glo; higher = more viable cells (100 = DMSO, 0 = benzethonium chloride kill control)
Method in brief: (§1)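 Every value is a normalised signal taken at one concentration of a dilution series. Compound was placed in 384-well plates at 5 concentrations in 10-fold steps over a compound-specific 10,000-fold range, and 20 µl of breast cancer cell suspension was seeded onto it. After 72 h, CellTox Green fluorescence (485/520 nm) was measured first and CellTiter-Glo luminescence second, following 10 min at room temperature. Each plate was scaled to 0.1 % DMSO (100) and a positive kill control (0).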

[2] = tested on: MFM-223; assay: as above
Method in brief: as §1

[3] = tested on: HCC1937; assay: as above
Method in brief: as §1

[4] = tested on: Hs578T; assay: as above
Method in brief: as §1

[5] = tested on: DU-4475; assay: as above
Method in brief: as §1

[6] = tested on: HDQ-P1; assay: as above
Method in brief: as §1

[7] = tested on: MDA-MB-231; assay: as above
Method in brief: as §1

[8] = tested on: MDA-MB-453; assay: as above
Method in brief: as §1

[9] = tested on: MDA-MB-436; assay: as above
Method in brief: as §1

[10] = tested on: HCC1599; assay: as above
Method in brief: as §1

[11] = tested on: SK-BR-3; assay: as above
Method in brief: as §1

[12] = tested on: BT-474; assay: as above
Method in brief: as §1

[13] = tested on: CAL-85-1; assay: as above
Method in brief: as §1

[14] = tested on: MDA-MB-468; assay: as above
Method in brief: as §1

[15] = tested on: CAL-51; assay: as above
Method in brief: as §1

[16] = tested on: BT-549; assay: as above
Method in brief: as §1

[17] = tested on: CAL-148; assay: as above
Method in brief: as §1

[18] = tested on: HCC1143; assay: as above
Method in brief: as §1

[19] = tested on: CAL-120; assay: as above
Method in brief: as §1

[20] = tested on: MCF-10A; assay: normalised response (% of control), CellTox Green; higher = less cell death (100 = DMSO, 0 = benzethonium chloride kill control)
Method in brief: as §1

[21] = tested on: MFM-223; assay: as above
Method in brief: as §1

[22] = tested on: HCC1937; assay: as above
Method in brief: as §1

[23] = tested on: Hs578T; assay: as above
Method in brief: as §1

[24] = tested on: DU-4475; assay: as above
Method in brief: as §1

[25] = tested on: HDQ-P1; assay: as above
Method in brief: as §1

[26] = tested on: MDA-MB-231; assay: as above
Method in brief: as §1

[27] = tested on: MDA-MB-453; assay: as above
Method in brief: as §1

[28] = tested on: HCC1599; assay: as above
Method in brief: as §1

[29] = tested on: BT-474; assay: as above
Method in brief: as §1

[30] = tested on: CAL-85-1; assay: as above
Method in brief: as §1

[31] = tested on: MDA-MB-468; assay: as above
Method in brief: as §1

[32] = tested on: CAL-51; assay: as above
Method in brief: as §1

[33] = tested on: BT-549; assay: as above
Method in brief: as §1

[34] = tested on: CAL-148; assay: as above
Method in brief: as §1

[35] = tested on: HCC1143; assay: as above
Method in brief: as §1

[36] = tested on: CAL-120; assay: as above
Method in brief: as §1

[37] = tested on: MDA-MB-436; assay: as above
Method in brief: as §1

SMILES	normalised response [1]	normalised response [2]	normalised response [3]	normalised response [4]	normalised response [5]	normalised response [6]	normalised response [7]	normalised response [8]	normalised response [9]	normalised response [10]	normalised response [11]	normalised response [12]	normalised response [13]	normalised response [14]	normalised response [15]	normalised response [16]	normalised response [17]	normalised response [18]	normalised response [19]	normalised response [20]	normalised response [21]	normalised response [22]	normalised response [23]	normalised response [24]	normalised response [25]	normalised response [26]	normalised response [27]	normalised response [28]	normalised response [29]	normalised response [30]	normalised response [31]	normalised response [32]	normalised response [33]	normalised response [34]	normalised response [35]	normalised response [36]	normalised response [37]
CN(C)CCN1C(=O)c2cccc3cc(N)cc(c23)C1=O [Amonafide] (1000 nM)	92.2%	101%	89.9%	93.6%	87.1%	102%	95.6%	107%	95.2%	106%	89.5%	87.5%	93.6%	91.6%	113%	97.2%	87.2%	97.6%	96.2%	100%	97.3%	116%	113%	96.7%	106%	122%	106%	102%	99.3%	100%	52%	106%	130%	93.9%	100%	98.9%	
c1ccc([C@H]2CN3CCSC3=N2)cc1 [Levamisole] (1000 nM)	109%	105%	99.6%	101%	99.2%	106%	104%	105%	104%	98.4%	113%	100%	104%	110%	73.4%	100%	103%	109%	101%	113%	102%	108%		106%	75.4%	117%	96.9%	104%	102%	107%	68.7%	103%	120%	107%	101%	100%	85%
Nc1nc(OCc2cc(Br)cs2)c2[nH]cnc2n1 [Lomeguatrib] (1000 nM)	104%	104%	97.8%	102%	102%	102%	103%	105%	97.6%	118%	103%	103%	104%	100%	103%	96.6%	99.3%	101%	96.6%	93.5%	82.9%	111%	100%	101%	112%	104%	103%	93.2%	100%	98.9%	139%	104%	108%	99.9%	117%	102%	
CNNCc1ccc(C(=O)NC(C)C)cc1 [Procarbazine] (1000 nM)	105%	101%	105%	109%	94.8%	103%	107%	100%	104%	101%	110%	98.1%	102%	105%	78.5%	98.7%	104%	104%	102%	107%		105%	101%	104%	104%	104%	70.8%	95%	101%	95.4%	84%	103%	107%	104%	123%	106%	98%
O=C1NC(=O)[C@@H](c2cn3c4c(cccc24)CCC3)[C@@H]1c1c[nH]c2ccccc12 [Tivantinib] (100 nM)	97.7%	99%	94.6%	94.6%	96.5%	105%	99.2%	77.3%	98%	127%	92%	106%	89.5%	96.1%	115%	92.4%	96.9%	93.9%	103%	113%	89.4%	100%	75%	98.7%		110%	104%	85.6%	94.2%	93.4%	116%	103%	106%		60.7%	97.9%	91.5%
CN(C)C[C@@H]1CCn2cc(c3ccccc32)C2=C(C(=O)NC2=O)c2cn(c3ccccc23)CCO1 [Ruboxistaurin] (1000 nM)	86.1%	86.8%	86%	104%	80.7%	85.8%	92.6%	96.1%	92.2%	111%	87.7%	87.3%	103%	73.8%	93%	91.1%	76.6%	90%	83.7%	103%	79.2%	104%		100%	98.5%	97.2%	95.9%	95%		111%	122%	78.1%	106%	55%	109%	98.7%	106%
CCCCCCCCc1ccc(CCC(N)(CO)CO)cc1 [Fingolimod] (1000 nM)	103%	107%	103%	99.9%	100%	103%	94.3%	102%	103%	114%	102%	94.6%	103%	98.1%	80.5%	99.3%	101%	101%	96.1%	57.9%	102%		106%	103%	89%	122%	103%	106%	103%	101%	160%	106%	131%	107%	111%	99.4%	90.6%
